Measurements reported in PMC12648443, “Modifications of NU-9, a potent protein aggregation inhibitor. Properties and activity in a cellular model of amyotrophic lateral sclerosis” (Bioorganic chemistry, 2025).

What was measured:
[1] = Microsomal metabolic stability, mouse; format: in vitro ADME; details: liver microsomes; for microsomal CLint at 1.1 μM: pH 7.4, 0.5 mg/mL; for half-life at 1.1 μM: pH 7.4, read-out: t1/2 (mouse)
Method: The assay was performed at Jubilant Biosys. Vials containing human or mouse microsomes were collected from the -80 °C freezer and thawed on ice. Then 27.5 μL of the initial microsome solutions (20 mg/mL) were diluted in 971.5 μL of a 67 mM potassium phosphate buffer solution (pH 7.4). The testing compounds were diluted in the buffered microsomal solution to obtain a final concentration of 1.1 μM. Then four different aliquots, each containing 180 μL of the assay solution, representing the samples at T = 0, T = 5, T = 15, and T = 30 min. The samples were pre-incubated at 37 °C for 5 min with gentle shaking, and then 20 μL of a NADPH solution (10 mM) was added to the different solutions of the test compounds. […] An aliquot of the supernatant (200 μL) was collected from each reaction sample and analyzed by LC-MS/MS. The Ln values of the peak area of the compounds to the internal standard over time (min.) were graphed using Excel, and the elimination rates of the compounds (k) were determined from the slopes obtained from the graphs. The k values were used to calculate the compounds half-life using the equation: t1/2=Ln2/k The intrinsic clearance (CLint) of each compound in the presence of mouse and human microsomes was calculated using the equation: […] Verapamil and Ketoconazole were used as controls to evaluate the assay performance. The results are presented as an average of two technical replicates.

[2] = system: MG132-induced mutant SOD1 intracellular aggregation in PC12-SOD1^G85R YFP cells; assay: Protection against MG132-induced mut-SOD1 intracellular aggregation (fluorescence microscopy); format: cell-based; details: PC12-SOD1^G85R YFP cells, 0.7 μM MG132, 72 h; Inactive = no decrease of aggregates at 10 μM vs vehicle
Method: The PC12 Tet-Off-SOD1^G85R YFP cells were cultured in DMEM media supplemented with 10 % horse serum, 5 % Tet-approved FBS, 1 % Penstrep, 1× L-glutamine, 200 μg/mL hygromycin, 100 μg/mL G418, with 1 μg/mL Doxycycline and were incubated at 37 °C in humidified air with […] until 90–95 % confluency. To induce the expression of SOD1^G85R YFP, the Doxycycline was removed at least 4 days before the experiment. To remove the Doxycycline, the media was removed, and the cells were washed 3 times with 1xPBS. The cells were then cultured in standard culture media without Doxycycline. To set up the assay, the cells were then seeded into 96-well cell culture plates (Greiner Bio-One Catalog #655090) at a concentration of 50,000 cells/well with a final volume of 100 μL/well and incubated in the CO2 incubator at 37 °C for 24 h. The media were removed from the cells and replaced with 100 μL of media containing 0.1 % DMSO or compounds, and incubated in the CO2 incubator at 37 °C for 6 h. The media were then replaced with fresh 100 μL of media containing the diluted compounds with 0.7 μM (−)-MG-132, and the plates were incubated for 72 h under culture conditions. After 72 h, the cells were stained with Hoescht 33,342 (55 μg/mL, 10 μL/well) and imaged (lex = 358, 513 nm) using a Molecular Devices ImageXpress Micro Confocal High-Content Imaging System equipped with a 40× objective. […] Image binning was set to 2. DAPI fluorescence was captured using an exposure time of 300 ms, and FITC fluorescence was captured using an exposure time of 400 ms. A 13-plane z-series was acquired for each field of view with a step size of 3 μm. For each condition, 2 sets of 9 images were generated in a 3 × 3 grid to separately image the SOD1^G85R YFP proteins and the nuclei stained with Hoescht 33,342. Image analysis was performed with MetaXpress software (Molecular Devices) using the Transfluor module. Parameters for puncta detection (aggregates) were set with a minimum pit width of 2 μm and a maximum pit width of 5 μm. Signal intensity thresholds were defined as 700 grayscale units above the local background. The analysis provided the average area of each cell that is covered by puncta (pit/cell), which are indicated by bright green spots on the SOD1^G85RYFP image set.
The assay was performed in triplicate for each condition tested, and wells containing the media with vehicle (0.1 % DMSO) or (−)-MG-132 alone were used as controls representing the minimum and maximum aggregate formation. […] The data for EC50 determination was treated with Prism and fitted using a semi-logarithmic curve for determination of the EC50 values of NU9 and compounds 4, 6, 20 and 21.

HT22 hippocampal cells = assay: DAPRed autophagy dye live cell imaging; format: cell-based, mouse; details: 3 μM, 5 h treatment, bafilomycin 0.1 μM in the last 3 h
Method: HT22 immortalized mouse hippocampal neuronal cell line was maintained in DMEM supplemented with 10% FBS and 1% penicillin-streptomycin under standard conditions (37 °C, 5% CO2). On the day before the experiment, HT22 cells were transferred to a sterile poly-D-lysine-coated Nunc™ Lab-Tek™ II Chambered Coverglass (8 wells; Thermo Fisher Sci. cat. 155,409) at a concentration of 40,000 cells/300 μL of media in each well and incubated overnight at 37 °C. Stock solutions of Torin-1 (10 mM) and 20 (10 mM) were prepared in DMSO and then diluted in media to obtain the final treatment solutions at 0.2 and 3 μM, respectively. The media was removed, the cells were quickly washed with 1×PBS solution, and fresh media containing the compounds or the DMSO (0.1 % v/v) were transferred to the wells. The plates were incubated for 2 h. The media was removed, and after washing once with 1×PBS, fresh media containing Bafilomycin (0.1 μM), DAPRed dye (0.25 μM) and Hoescht 33,342 (55 μg/mL) was added to the wells and the cells were incubated for 3 h at 37 °C. […] Puncta structures >0.2 μm were then identified using Otsu thresholding and the results represented as particles per cell for each set of images analyzed. […] The statistical differences between two or more groups were determined by One-way ANOVA followed by Sidak post-hoc multiple-comparison test. […]

Q: For `O=C1CC(=O)CC(/C=C/c2cc(C(F)(F)F)cc(C(F)(F)F)c2)C1` [Compound 6, (E)-5-(3,5-Bis(trifluoromethyl)styryl)cyclohexane-1,3-dione], which microsomal CLint at 1.1 μM [1] is on record?
A: Its microsomal CLint at 1.1 μM is 67.3 ± 0.9 µL/min/mg.

Q: What about the half-life at 1.1 μM [1] of the same compound?
A: Its half-life at 1.1 μM is 20.7 ± 0.3 min.

Q: What about the EC50 [2] of the same compound?
A: Its EC50 is 2060 ± 240 nM.

Q: Which results are given for `CC(C)(Oc1cc(C(F)(F)F)cc(C(F)(F)F)c1)C1CC(=O)CC(=O)C1` [Compound 20, 5-(2-(3,5-bis(trifluoromethyl)phenoxy)propan-2-yl)cyclohexane-1,3-dione]?
A: DAPRed fluorescence signal (autophagy flux) compared to vehicle (HT22 hippocampal cells): increasing DAPRed fluorescence signal; microsomal CLint at 1.1 μM [1]: 35.7 ± 4.7 µL/min/mg; half-life at 1.1 μM [1]: 40.7 ± 3.8 min; EC50 [2]: 2630 ± 270 nM
